Measurements from ChEMBL document CHEMBL6083269, “Design, synthesis, in vitro and in vivo trypanosomaticidal efficacy of novel 5-nitroindolylazines” (Eur J Med Chem, 2024).
pIC50: −log10 of the molar value.

Legend:
[1] = Selectivity index, ratio of CC50 for MDBK to IC50 for Trypanosoma brucei brucei GUTat3.1; format: toxicity, cell-based; conditions: cattle, MDBK cells; read-out: Ratio CC50/IC50
[2] = tested on: Trypanosoma congolense; experiment: Trypanocidal activity against Trypanosoma congolense IL3000 incubated for 72 hrs by CellTiter-Glo reagent based […] analysis; format: functional, organism-based; conditions: IL3000, 72 h
[3] = Selectivity index, ratio of IC50 for african green monkey Vero cells to IC50 for static antileishmanial activity against Leishmania donovani 9515 (MHOM/IN/95/9151) amastigote; format: toxicity, cell-based; conditions: read-out: Ratio IC50
[4] = Selectivity index, ratio of CC50 for MDBK to IC50 for Trypanosoma congolense IL3000; format: toxicity, cell-based; conditions: cattle, MDBK cells; read-out: Ratio CC50/IC50
[5] = Selectivity index, ratio of CC50 for MDBK to IC50 for Trypanosoma brucei rhodesiense IL1501; format: toxicity, cell-based; conditions: cattle, MDBK cells; read-out: Ratio CC50/IC50
[6] = tested on: Leishmania donovani; experiment: Antileishmanial activity against Leishmania donovani 9515 (MHOM/IN/95/9151) amastigote infected in THP-1 cells assessed as inhibition of parasite growth incubated for 72 hrs by resazurin dye based plate reader assay; format: functional, organism-based; conditions: THP-1, 72 h
[7] = Selectivity index, ratio of IC50 for human THP-1 cells to IC50 for static antileishmanial activity against Leishmania donovani 9515 (MHOM/IN/95/9151) amastigote; format: toxicity, cell-based; conditions: read-out: Ratio IC50
[8] = Selectivity index, ratio of CC50 for MDBK to IC50 for Trypanosoma evansi Tansui; format: toxicity, cell-based; conditions: cattle, MDBK cells; read-out: Ratio CC50/IC50
[9] = Cytotoxicity against green monkey Vero cells incubated for 48 hrs by resazurin dye based assay; format: toxicity, cell-based; conditions: African green monkey (Chlorocebus sabaeus)
[10] = Selectivity index, ratio of IC50 for human THP-1 cells to IC50 for leishmanicidal activity against Leishmania donovani 9515 (MHOM/IN/95/9151) amastigote; format: toxicity, cell-based; conditions: read-out: Ratio IC50
[11] = Selectivity index, ratio of IC50 for african green monkey Vero cells to IC50 for leishmanicidal activity against Leishmania donovani 9515 (MHOM/IN/95/9151) amastigote; format: toxicity, cell-based; conditions: read-out: Ratio IC50
[12] = tested on: Trypanosoma brucei brucei; experiment: Trypanocidal activity against Trypanosoma brucei brucei GUTat3.1 incubated for 72 hrs by CellTiter-Glo reagent based […] analysis; format: functional, organism-based; conditions: GUTat3.1, 72 h
[13] = Selectivity index, ratio of CC50 for MDBK to IC50 for Trypanosoma equiperdum IVM-t1; format: toxicity, cell-based; conditions: cattle, MDBK cells; read-out: Ratio CC50/IC50
[14] = Selectivity index, ratio of CC50 for MDBK to IC50 for Trypanosoma brucei gambiense IL1922; format: toxicity, cell-based; conditions: cattle, MDBK cells; read-out: Ratio CC50/IC50
[15] = Cytotoxicity against human […]-differentiated THP-1 cells incubated for 72 hrs by resazurin dye based assay; format: toxicity, cell-based
[16] = tested on: Trypanosoma evansi; experiment: Trypanocidal activity against Trypanosoma evansi Tansui incubated for 72 hrs by CellTiter-Glo reagent based […] analysis; format: functional, organism-based
[17] = tested on: Trypanosoma brucei gambiense; experiment: Trypanocidal activity against Trypanosoma brucei gambiense IL1922 incubated for 72 hrs by CellTiter-Glo reagent based […] analysis; format: functional, organism-based; conditions: IL1922, 72 h
[18] = tested on: Leishmania donovani; experiment: Antileishmanial activity against Leishmania donovani 9515 (MHOM/IN/95/9151) promastigote incubated for 48 hrs by resazurin dye based plate reader assay; format: functional, organism-based
[19] = tested on: Trypanosoma equiperdum; experiment: Trypanocidal activity against Trypanosoma equiperdum IVM-t1 incubated for 72 hrs by CellTiter-Glo reagent based […] analysis; format: functional, organism-based; conditions: IVM-t1, 72 h
[20] = tested on: Leishmania donovani; experiment: Leishmanicidal activity against Leishmania donovani 9515 (MHOM/IN/95/9151) amastigote infected in THP-1 cells incubated for 72 hrs by resazurin dye based plate reader assay; format: functional, organism-based; conditions: THP-1, 72 h
[21] = Selectivity index, ratio of IC50 for human THP-1 cells to IC50 for Leishmania donovani 9515 (MHOM/IN/95/9151) promastigote; format: toxicity, cell-based; conditions: read-out: Ratio IC50
[22] = Selectivity index, ratio of IC50 for african green monkey Vero cells to IC50 for Leishmania donovani 9515 (MHOM/IN/95/9151) promastigote; format: toxicity, cell-based; conditions: read-out: Ratio IC50
[23] = tested on: Trypanosoma brucei rhodesiense; experiment: Trypanocidal activity against Trypanosoma brucei rhodesiense IL1501 incubated for 72 hrs by CellTiter-Glo reagent based […] analysis; format: functional, organism-based; conditions: IL1501, 72 h
[24] = Cytotoxicity against MDBK cells incubated for 72 hrs by CCK8 assay; format: toxicity, cell-based, Bos taurus; conditions: cattle; for CC50 at 72 h: MDBK cells
[25] = Selectivity index, ratio of IC50 for african green monkey Vero cells to IC50 for Leishmania donovani; format: toxicity, cell-based; conditions: read-out: Ratio IC50
[26] = tested on: Leishmania major; experiment: Antileishmanial activity against Leishmania major IR-173 (MHO-M/IR/-173) promastigote incubated for 48 hrs by resazurin dye based plate reader assay; format: functional, organism-based
[27] = Selectivity index, ratio of IC50 for african green monkey Vero cells to IC50 for Leishmania major IR-173 (MHO-M/IR/-173) promastigote; format: toxicity, cell-based; conditions: read-out: Ratio IC50
[28] = tested on: Leishmania major; experiment: Leishmanicidal activity against Leishmania major NIH-S (MHOM/SN/74/Seidman) amastigote incubated for 48 hrs by resazurin dye based plate reader assay; format: functional, organism-based
[29] = Selectivity index, ratio of IC50 for human THP-1 cells to IC50 for Leishmania major IR-173 (MHO-M/IR/-173) promastigote; format: toxicity, cell-based; conditions: read-out: Ratio IC50
[30] = tested on: Leishmania major; experiment: Antileishmanial activity against Leishmania major NIH-S (MHOM/SN/74/Seidman) amastigote infected in THP-1 cells assessed as inhibition of parasite growth incubated for 72 hrs by resazurin dye based plate reader assay; format: functional, organism-based; conditions: THP-1, 72 h

## C#CCn1cc(/C=N\N=C\c2cccs2)c2cc([N+](=O)[O-])ccc21
[1]
  selectivity ratio: > 13.9
[2]
  pIC50: 5.40
[3]
  selectivity ratio: 12
[4]
  selectivity ratio: > 75.4
[5]
  selectivity ratio: 18.3
[6]
  pIC50: 6.05
[7]
  selectivity ratio: 16
[8]
  selectivity ratio: > 16.1
[9]
  IC50 at 48 h: 10.8 µM
[10]
  selectivity ratio: 25
[11]
  selectivity ratio: 16
[12]
  pIC50: 4.67
[13]
  selectivity ratio: > 16.2
[14]
  selectivity ratio: 20.2
[15]
  IC50 at 72 h: 16.6 µM
[16]
  pIC50: 4.73
[17]
  pIC50: 4.83
[18]
  pIC50: 5.15
[19]
  pIC50: 4.74
[20]
  pIC50: 6.17
[21]
  selectivity ratio: 2
[22]
  selectivity ratio: 2
[23]
  pIC50: 4.79
[24]
  CC50 at 72 h: > 297 µM

## C#CCn1cc(/C=N\N=C\C(C)=Cc2ccccc2)c2cc([N+](=O)[O-])ccc21
[1]
  selectivity ratio: 0.34
[2]
  pIC50: < 5.01
[4]
  selectivity ratio: 0.94
[5]
  selectivity ratio: 0.93
[6]
  pIC50: < 5.00
[8]
  selectivity ratio: 0.41
[9]
  IC50 at 48 h: 9.59 µM
[12]
  pIC50: 4.57
[13]
  selectivity ratio: 0.32
[14]
  selectivity ratio: 0.34
[15]
  IC50 at 72 h: > 100 µM
[16]
  pIC50: 4.64
[17]
  pIC50: 4.56
[18]
  pIC50: 5.10
[19]
  pIC50: 4.54
[20]
  pIC50: < 5.00
[21]
  selectivity ratio: 13
[22]
  selectivity ratio: 1
[23]
  pIC50: 5.01
[24]; mdbk, 72 h
  CC50: 226 µM

## O=Cc1ccc([N+](=O)[O-])o1
[25]
  selectivity ratio: 2

## O=[N+]([O-])c1ccc(/C=N/N=C/c2ccc(OCc3ccccc3)cc2)o1
[25]
  selectivity ratio: 400

## C#CCn1cc(/C=N\N=C\c2ccco2)c2cc([N+](=O)[O-])ccc21
[26]
  pIC50: 5.31
[2]
  pIC50: < 4.11
[3]
  selectivity ratio: > 112
[6]
  pIC50: 6.05
[7]
  selectivity ratio: 112
[9]
  IC50 at 48 h: > 100 µM
[10]
  selectivity ratio: > 39
[11]
  selectivity ratio: > 39
[12]
  pIC50: < 4.11
[27]
  selectivity ratio: 20
[28]
  pIC50: < 5.00
[15]
  IC50 at 72 h: > 100 µM
[16]
  pIC50: < 4.11
[17]
  pIC50: < 4.11
[18]
  pIC50: < 5.00
[19]
  pIC50: < 4.11
[29]
  selectivity ratio: 20
[20]
  pIC50: 5.59
[30]
  pIC50: < 5.00
[23]
  pIC50: < 4.11
[24]
  CC50 at 72 h: > 312 µM
